# Measured values as given in patent US5594024A, “Centrally actig substituted phenylazacycloalkanes” (priority 1995, dated 1997).
# Like-named read-outs stand apart in the source and are kept apart here.
# How the values were obtained:
# [1] = tested on: S-(-)-34-induced hypermotility; assay: Blockade of S-(-)-34-induced hypermotility in habituated rats; assay type: in vivo, rat; settings: for effect on S-(-)-34-induced hypermotility: habituated rats, S-(-)-34 50 μmol/kg s.c.
# Procedure: It was shown that S-(-)-34-induced hypermotility in habituated rats is blocked by haloperidol, raclopride, reserpine and alpha-methyl-para tyrosine. […] The test compounds were administered consecutively at the same time.
# The catecholamine synthesis inhibitor alpha-methyl-para-tyrosine (Sigma, alpha-MT;100 mg/kg, i.p.) was administered 60 minutes before […] ([…], s.c.).
# habituated rats = assay: Locomotor activity and behavior in habituated rats; assay type: in vivo, rat (male Sprague-Dawley); settings: habituated rats
# Procedure: (§1) Footnotes Table 3. The rats were habituated to the motility meters 60 min
# prior to the activity session.
# (§2) Injection volumes were 5 mL/kg.
# Locomotor activity was measured in rats which were habituated 60 minutes to the activity meters before drug injection. The activity was measured for the subsequent 60 minutes and expressed as % of controls (means ±SEM, n=4).
# 5-HT1A = biological target: T1, 5-HT1A (Rattus norvegicus, UniProt P19327); assay: 5-HT1A radioligand binding ([3H]-8-OH-DPAT); set-up: species or system rat (male Sprague-Dawley); settings: [3H]-8-OH-DPAT, rat cortex; read-out: in vitro binding IC50, 5HT1A
# T1 construct: the whole brain with the exception of the brainstem and cerebellum was rapidly removed; from tissue
# T1 sequence (P19327 1-422): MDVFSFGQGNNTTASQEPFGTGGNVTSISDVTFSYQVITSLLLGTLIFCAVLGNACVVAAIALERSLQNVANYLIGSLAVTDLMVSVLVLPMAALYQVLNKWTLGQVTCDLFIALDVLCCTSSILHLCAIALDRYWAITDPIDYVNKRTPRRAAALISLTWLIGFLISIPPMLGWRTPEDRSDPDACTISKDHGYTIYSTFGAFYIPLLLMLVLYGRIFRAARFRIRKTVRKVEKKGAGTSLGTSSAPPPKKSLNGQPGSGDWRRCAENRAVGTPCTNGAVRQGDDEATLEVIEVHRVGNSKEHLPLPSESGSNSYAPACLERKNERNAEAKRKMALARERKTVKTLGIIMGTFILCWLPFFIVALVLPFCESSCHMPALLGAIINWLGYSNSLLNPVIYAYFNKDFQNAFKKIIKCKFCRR
# Procedure: ^b Serotonin 5HT1A ([^3 H]-8OH-DPAT, agonist) rat cortex.
# 5-HT1A radioligand binding. Male Sprague-Dawley rats (160-225 g) were killed by decapitation and the whole brain with the exception of the brainstem and cerebellum was rapidly removed, weighed and chilled in ice-cold 0.9% NaCl. Each brain was homogenized (Ultra-Turrax, 20 s) in 10 mL ice-cold 50 mM Tris buffer (pH 8.0 at 25° C.) containing 120 mM NaCl, 4 mM CaCl2 and 4 mM MgCl2 and centrifuged at 20,000 g's at 4° C. for 10 minutes. Pellets were resuspended in 10 mL fresh buffer and preincubated for 10 minutes in a 37° C. waterbath and then recentrifuged. Final pellets were homogenized in 100 volumes (w/v) of Tris buffer (as described above) containing 10 μM pargyline. The incubation tubes were kept on ice in triplicates and received 100 μL drug solution in water (or water for total binding) and 1000 μL membrane suspension (corresponds to 10 mg original tissue). The binding experiment was initiated by addition of 100 μL of (3H)-8-OH-DPAT (specific activity 143-158 Ci/mmol) in ascorbic acid (the final incubation concentration was 1 nM (3H)-8-OH-DPAT in 0.1% ascorbic acid). After incubation for 15 minutes at 37° C. the reaction was terminated by separation of the free radioligand from bound by rapid vacuum filtration using a cell harvester equipment (O. M. Teknik, Denmark). The tubes were rinsed with 4 mL and the filters (Whatman GF/F 25 mm) were washed twice with 4 mL ice-cold 0.9% NaCl.
# The radioactivity of the filters was measured in a liquid scintillation counter (efficiency 41%) in 5 mL Picofluor®. Specific binding (70-75% of total binding) was defined as the radioactivity displaced by 10 μM 5-HT. IC50 values were calculated by semi-log plot and linear regression analysis.
# 5-HT receptor [2] = assay: 5-HT metabolism (5-HIAA levels) in habituated rats; assay type: in vivo, rat (male Sprague-Dawley)
# Procedure: as §1
# SEM. The rats were immediately killed after the activity session, striata
# (§3) and limbic levels of DOPAC and 5HIAA were measured by means of HPLCEC. *p
# (§4) In the experiments with habituated rats no NSD was administered and the animals were killed one hour after drug administration. […] The levels were expressed as % of controls (DOPAC and 5-HIAA see Table 3). The in vivo brain microdialysis experiments were performed in conscious rats as described by Waters et al., Eur. J. Pharm., 187, 425-34 (1990).
# Injection volumes were 5 mL/kg. […]
# D2 receptors = biological target: T2, D2 receptors (Rattus norvegicus, UniProt P61169); assay: D2 antagonist binding ([3H]-spiperone), rat striatum; settings: [3H]-spiperone, rat striatum; read-out: in vitro binding IC50, D2 -spip
# T2 construct: Preparation of rat striatal membranes for (3H)-spiperone; from tissue; host or cells: rat striatum (striatal membranes)
# T2 sequence (P61169 whole entry): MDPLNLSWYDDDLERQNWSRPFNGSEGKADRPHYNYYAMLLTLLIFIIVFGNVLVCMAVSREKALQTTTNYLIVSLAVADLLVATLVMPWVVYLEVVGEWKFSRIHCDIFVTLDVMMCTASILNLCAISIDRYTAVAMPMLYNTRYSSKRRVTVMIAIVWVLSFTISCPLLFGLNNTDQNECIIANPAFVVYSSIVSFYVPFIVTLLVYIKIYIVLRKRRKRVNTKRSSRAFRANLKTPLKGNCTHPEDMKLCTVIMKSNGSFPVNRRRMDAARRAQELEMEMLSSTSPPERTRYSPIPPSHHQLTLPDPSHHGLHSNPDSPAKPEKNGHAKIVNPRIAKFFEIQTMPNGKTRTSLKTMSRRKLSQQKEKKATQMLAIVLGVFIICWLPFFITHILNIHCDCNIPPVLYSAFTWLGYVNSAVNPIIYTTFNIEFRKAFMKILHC
# Procedure: D2 antagonist binding. Preparation of rat striatal membranes for (3H)-spiperone (specific activity 21-24 Ci/mmol) binding was carried out in a similar manner as described for D1-binding, Hyttel et al., J. Neural. Transm., 68, 171 (1987).
# IC50 values were calculated by semi-log plot and linear regression analysis.
# DA receptor [3] = assay: DA metabolism (DOPAC, HVA levels) in habituated rats; assay type: in vivo, rat (male Sprague-Dawley); settings: Rattus norvegicus, 1 h, habituated rats; for response vs control in vivo at 100 µmol/kg: 100 μmol/kg sc; for response vs control in vivo at 6.2 µmol/kg: 6.2 μmol/kg sc; for response vs control in vivo at 25 µmol/kg: 25 μmol/kg sc
# Procedure: as §1
# The rats were immediately killed after the activity session, striata
# as §3, §4, §2
# After the activity session the rats were killed and the brain levels of HVA and DOPAC were measured (data are expressed as means ±SEM).
# [4] = tested on: d-amphetamine-induced hyperactivity; assay: d-Amphetamine-induced hyperactivity in habituated rats; assay type: in vivo, rat; settings: d-amphetamine 5.0 mg/kg, sc
# DA receptor [5] = assay: DOPA accumulation (DA synthesis rate) in non-pretreated rats after NSD 1015; settings: 100 sc
# Procedure: injected with NSD 1015 (100 mg/kg, i.p.) and then killed 30 min later.
# In-vivo determination of rat brain monoamine metabolites and tyrosine and tryptophan hydroxylation (biochemically monitored DA and 5-HT receptor agonist or antagonist activity).
# The compounds under evaluation were tested biochemically for central DA and 5-HT receptor (pre- and/or postsynaptic) stimulating and/or blocking activity. The concept of this biochemical screening method is that a DA or 5-HT receptor agonist will stimulate the receptor and through regulatory negative feed-back systems induce a decline in tyrosine or tryptophan hydroxylating activity, respectively, and a subsequent reduction in the synthesis rate of DA and 5-HT in the presynaptic neuron. […] The biochemical experiments and the determinations of Dopa and 5-HTP by means of HPLC with electrochemical detection were performed. The antagonistic effects were seen as increases in the synthesis rate (n=4), as a result of the positive feed-back upregulation of synthesis. The effects on Dopa and 5-HTP accumulation are expressed as % of controls, which were: DOPA limbic system=447±23 ng/g and DOPA striatum=1045±47ng/g, 5-HTP limbic region 241±2 ng/g (Table 2).
# Animals used in the biochemical and motor activity experiments were male rats of the Sprague-Dawley strain (ALAB, Sollentuna, Sweden), weighing 200-300 g. The rats were kept 5 per cage with free access to water and food (except for the starved animals for the experiments with per oral administration, who were only allowed water the last 18 hours before testing), at least one week from arrival until used in the experiments.
# All substances to be tested were dissolved in saline immediately before use, occasionally with the addition of a few drops of glacial acetic acid and/or moderate heating in order to obtain complete dissolution. Injection volumes were 5 mL/kg.
# Analysis of variance (ANOVA) followed by Fischer's test was used for the statistical calculations. P values less than 0.05 were regarded statistically significant.
# DOPA accumulation (DA synthesis rate) in non-pretreated rats (Table 2). After the locomotor activity session (see Table 2, above) the rats were injected with the decarboxylase inhibitor NSD 1015 (100 mg/kg, sc) and killed 30 minutes later. The DOPA accumulation in the DA -rich limbic and striatal and the NE-rich cortical (mainly hemispheres) brain areas were expressed as % of saline treated controls.
# DOPA accumulation, time course after s.c. and p.o. administration (Table 2). […] NSD 1015 (100 mg/kg, sc) was injected 30 minutes before death. The data are expressed as % of saline treated controls.
# 5-HT receptor [6] = assay: 5-HTP accumulation (5-HT synthesis rate) in non-pretreated rats after NSD 1015; assay type: in vivo, rat (male Sprague-Dawley); settings: 100 sc
# Procedure: observations are commented to the right. After the session the rats were
# accumulation in the NErich cortical regions and 5HTP in the limbic
# as §2
# non-pretreated rats = assay: Locomotor activity and gross behavior in non-habituated (non-pretreated) rats; settings: 100 sc, non-pretreated rats; for Motor Act.: 30 min
# [7] = Rattus norvegicus, 1 h, 100 μmol/kg sc, 60 min, read-out: Motor Activity
Structure (SMILES),effect on S-(-)-34-induced hypermotility [1],Behavioral observations (habituated rats; 100 μmol/kg sc),response vs control in vivo at 100 µmol/kg (habituated rats; [7]) [%],IC50 (5-HT1A) [µM],5-HIAA limbic (5-HT receptor [2]; 100 μmol/kg sc),IC50 (D2 receptors) [µM],response vs control in vivo at 100 µmol/kg (DA receptor [3]; read-out: DOPAC limbic) [%],response vs control in vivo at 100 µmol/kg (DA receptor [3]; read-out: DOPAC striatum) [%],other results
CCN1CCC[C@H]1CNC(=O)c1c(O)c(Cl)cc(Cl)c1OC [raclopride],blocked,,,,,,,,
"CCCN1CCC[C@@H](c2cccc(OS(C)(=O)=O)c2)C1 [Compound S-22, S-3-((3-Methylsulfonyl)oxyphenyl-N-n-propyl)piperidine]",,Activation,550 ± 50,1.7,118 ± 11 % of saline treated controls,25,209 ± 11,276 ± 12,
COC(=O)[C@H]1[C@H]2C[C@@H]3c4[nH]c5cc(OC)ccc5c4CCN3C[C@H]2C[C@@H](OC(=O)c2cc(OC)c(OC)c(OC)c2)[C@@H]1OC [reserpine],blocked,,,,,,,,"effect on locomotor stimulation produced by S-(-)-34 ([1]; reserpine 5 mg/kg, 18 h before, S-(-)-34 50 μmol/kg, sc): completely prevented the locomotor stimulation"
"CC(N)(Cc1ccc(O)cc1)C(=O)O (stereo not drawn) [alpha-MT, alpha-methyl-para-tyrosine]",blocked,,,,,,,,"motor activity, compound alone ([1]; 100 mg/kg, i.p.): did not affect the motor activity; effect on locomotor stimulation produced by S-(-)-34 ([1]; alpha-MT 100 mg/kg, i.p., 60 minutes before): partially inhibited the locomotor stimulation"
"C=CCN1CCC[C@@H](c2cccc(OS(=O)(=O)C(F)(F)F)c2)C1 [Compound S-17, S-3-((3-(Trifluoromethyl)sulfonyl)oxyphenyl-N-allyl)piperidine]",,Activation,195 ± 13,4.2,93 ± 6 % of saline treated controls,28,159 ± 18,222 ± 12,
"C[C@H](N)Cc1ccccc1 [d-amphetamine, reference compound]",,,,,,,,,"activity of habituated rats, d-amphetamine alone [4]: 871±68 % of NaCl controls"
O=C(CCCN1CCC(O)(c2ccc(Cl)cc2)CC1)c1ccc(F)cc1 [haloperidol],blocked,,,,,,,,
"CCCCN1CCC[C@@H](c2cccc(OS(=O)(=O)C(F)(F)F)c2)C1 [S-(-)-16, S-(-)-3-((3-(Trifluoromethyl)sulfonyl)oxyphenyl-N-n-butyl)-piperidine]",,Activation,345 ± 39,1.3,109 ± 4 % of saline treated controls,1.3,186 ± 2,192 ± 4,DOPA acc Cortex (DA receptor [5]): 89 ± 9 % of saline controls; DOPA acc Stratium (DA receptor [5]): 234 ± 10 % of saline controls; 5-HTP acc Limbic Region (5-HT receptor [6]): 82 ± 5 % of saline controls; Gross Behavioral Observations (non-pretreated rats): No change; Motor Act. (non-pretreated rats): 116 ± 21 % of saline controls
"CCN1CCC[C@@H](c2cccc(OS(=O)(=O)C(F)(F)F)c2)C1 [S-(-)-14, S-(-)-3-((3-(Trifluoromethyl)sulfonyl)oxyphenyl-N-ethyl)-piperidine]",,Activation,404 ± 205,1.3,98 ± 33 % of saline treated controls,7.1,223 ± 39,293 ± 29,DOPA acc Cortex (DA receptor [5]): 80 ± 4 % of saline controls; DOPA acc Stratium (DA receptor [5]): 286 ± 33 % of saline controls; 5-HTP acc Limbic Region (5-HT receptor [6]): 76 ± 9 % of saline controls; Gross Behavioral Observations (non-pretreated rats): No change; Motor Act. (non-pretreated rats): 103 ± 19 % of saline controls
"CCCN1CCC[C@@H](c2cccc(OS(=O)(=O)C(F)(F)F)c2)C1 [S-(-)-15, S-(-)-3-((3-(Trifluoromethyl)sulfonyl)oxyphenyl-N-n-propyl)-piperidine]",,Activation,445 ± 131,2.3,140 ± 11 % of saline treated controls,1.6,196 ± 16,217 ± 3,"Behavioral observations (habituated rats; 6.2 μmol/kg sc): No change; Motor Activity (habituated rats; 6.2 μmol/kg sc, 60 min): 91 ± 94 % of saline treated controls; Behavioral observations (habituated rats; 25 μmol/kg sc): No change; response vs control in vivo at 25 µmol/kg (habituated rats; Rattus norvegicus, 1 h, 25 μmol/kg sc, 60 min, read-out: Motor Activity): 128 ± 33%; 5-HIAA limbic (5-HT receptor [2]; 6.2 μmol/kg sc): 139 ± 9 % of saline treated controls; 5-HIAA limbic (5-HT receptor [2]; 25 μmol/kg sc): 126 ± 5 % of saline treated controls; response vs control in vivo at 6.2 µmol/kg (DA receptor [3]; read-out: DOPAC limbic): 134 ± 10%; response vs control in vivo at 6.2 µmol/kg (DA receptor [3]; read-out: DOPAC striatum): 118 ± 10%; response vs control in vivo at 25 µmol/kg (DA receptor [3]; read-out: DOPAC limbic): 145 ± 11%; response vs control in vivo at 25 µmol/kg (DA receptor [3]; read-out: DOPAC striatum): 175 ± 8%"
"CN1CCC[C@@H](c2cccc(OS(=O)(=O)C(F)(F)F)c2)C1 [S-(+)-13, S-(+)-3-((3-(Trifluoromethyl)sulfonyl)oxyphenyl-N-methyl)-piperidine]",,No change,135 ± 14,2.8,109 ± 2 % of saline treated controls,71,138 ± 10,172 ± 11,
